Reference: patent publication US7429571B2, “Therapeutic furopyrimidines and thienopyrimidines” (BioCryst Pharmaceuticals, Inc., priority 2004, dated 2008)

Test system: not given
Conditions: not given

Structure (SMILES) | melting point
C[C@@]1(O)[C@H](O)[C@@H](CO)O[C@H]1c1coc2c(=O)[nH]c(N)nc12 | 80 to 84 °C
CC(C)Nc1ncnc2c([C@@H]3O[C@H](CO)[C@@H](O)[C@H]3O)coc12 | 58 to 80 °C
CCNc1ncnc2c([C@@H]3O[C@H](CO)[C@@H](O)[C@H]3O)coc12 | 76 to 88 °C
C[C@@]1(O)[C@H](O)[C@@H](CO)O[C@H]1c1coc2c(N(N)CCO)ncnc12 | 84 to 92 °C
COC(=O)C(NP(=O)(OC[C@H]1O[C@@H](c2coc3c(N)ncnc23)[C@](C)(O)[C@@H]1O)Oc1ccccc1)C(C)C (stereo in doubt) | 58 to 62 °C
CCCNc1ncnc2c([C@@H]3O[C@H](CO)[C@@H](O)[C@H]3O)coc12 | 58 to 80 °C
CN(N)c1ncnc2c([C@@H]3O[C@H](CO)[C@@H](O)[C@@]3(C)O)coc12 | 70 to 84 °C

Other lines, results leading:

melting point | Structure (SMILES)
88 to 100 °C | OC[C@H]1O[C@@H](c2coc3c(NC4CC4)ncnc23)[C@H](O)[C@@H]1O
192 °C | OC[C@H]1O[C@@H](c2coc3c(N4CCC4)ncnc23)[C@H](O)[C@@H]1O
198 °C | OC[C@H]1O[C@@H](c2coc3c(N4CCCC4)ncnc23)[C@H](O)[C@@H]1O
210 °C | CN(C)c1ncnc2c([C@@H]3O[C@H](CO)[C@@H](O)[C@H]3O)coc12
88 to 100 °C | CNc1ncnc2c([C@@H]3O[C@H](CO)[C@@H](O)[C@H]3O)coc12

Test system: HCV
Conditions: patients, sole treatment; cited from earlier work

Structure (SMILES) | effect on serum levels of HCV-RNA
NC(=O)c1ncn([C@@H]2O[C@H](CO)[C@@H](O)[C@H]2O)n1 [Ribavirin, 1-β-D-ribofuranosyl-1-1,2,4-triazole-3-carboxamide] | does not lower serum levels of HCV-RNA

Same assay, conditions: ribavirin alone; cited from earlier work

Structure (SMILES) | patients in whom serum amino transferase levels are reduced to normal
NC(=O)c1ncn([C@@H]2O[C@H](CO)[C@@H](O)[C@H]2O)n1 [Ribavirin, 1-β-D-ribofuranosyl-1-1,2,4-triazole-3-carboxamide] | 40%
